Measurements from PubChem BioAssay AID330 (DTP/NCI, 2004).
Several values for one entry are separate records, joined by “and”; a condition that tells them apart may be missing. Equal entries are not always repeated. Toxic doses and inconclusive results are not listed. Rule for the calls: active = survival T/C of 150% or more; inactive = T/C below 125% in these data.

Tested on: P388 leukemia ip, CD2F1 mice, survival T/C
Test: NCI In Vivo Anticancer Drug Screen. Data for tumor model P388 Leukemia (intraperitoneal) in CD2F1 (CDF1) mice
Settings: endpoint: median survival time, higher = longer survival
How it was run: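 Mice carrying the transplanted tumor received test compound or vehicle. Survival was recorded in each group, and the value is the treated-group measurement divided by that of the vehicle-treated control group.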

[1] = dose: 25.0 mg/kg/injection, schedule: Q01DX009 (ip), vehicle: saline with Tween-80
[2] = dose: 50.0 mg/kg/injection, schedule: Q01DX009 (ip), vehicle: saline with Tween-80
[3] = dose: 100.0 mg/kg/injection, schedule: Q01DX009 (ip), vehicle: saline with Tween-80
[4] = dose: 200.0 mg/kg/injection, schedule: Q01DX009 (ip), vehicle: saline with Tween-80
[5] = dose: 12.5 mg/kg/injection, schedule: Q01DX009 (ip), vehicle: saline with Tween-80

Measured: T/C

NN(C(=O)c1ccccc1)C1CCCCC1
inactive: dose: 12.5 mg/kg/injection, schedule: Q04DX003 (ip), vehicle: saline 95 % of control | dose: 25.0 mg/kg/injection, schedule: Q04DX003 (ip), vehicle: saline 104 % of control | dose: 50.0 mg/kg/injection, schedule: Q04DX003 (ip), vehicle: saline 100 % of control

CCOC(=O)CC(C)=N
inactive: [1] 112 % of control | [2] 99 % of control and 110 % of control and 114 % of control | [3] 106 % of control and 107 % of control and 113 % of control | [4] 103 % of control and 109 % of control and 123 % of control | dose: 400.0 mg/kg/injection, schedule: Q01DX009 (ip), vehicle: saline with Tween-80 103 % of control and 105 % of control

CC(C)N(C(=O)C1CCN(Cc2c[nH]c3ccccc23)CC1)C(C)C
inactive: [5] 108 % of control | [1] 101 % of control | [2] 101 % of control | [3] 115 % of control

COc1ccc2c(c1)CCCC(Br)C2=O (stereo unspecified)
inactive: dose: 25.0 mg/kg/injection, schedule: Q01DX009 (ip), vehicle: distilled water + alcohol 107 % of control | dose: 50.0 mg/kg/injection, schedule: Q01DX009 (ip), vehicle: distilled water + alcohol 105 % of control | dose: 100.0 mg/kg/injection, schedule: Q01DX009 (ip), vehicle: distilled water + alcohol 120 % of control | dose: 200.0 mg/kg/injection, schedule: Q01DX009 (ip), vehicle: distilled water + alcohol 122 % of control

COc1ccc(-c2n(O)c(C)c(C)[n+]2[O-])cc1
inactive: [5] 101 % of control | [1] 100 % of control | [2] 102 % of control and 92 % of control

O=C=N[Si](c1ccccc1)(c1ccccc1)c1ccccc1
inactive: dose: 100.0 mg/kg/injection, schedule: Q01DX001 (ip), vehicle: saline with Tween-80 96 % of control | dose: 200.0 mg/kg/injection, schedule: Q01DX001 (ip), vehicle: saline with Tween-80 89 % of control

O=c1cc[nH]c2c1ccc1[nH]ccc(=O)c12
inactive: dose: 60.0 mg/kg/injection, schedule: Q01DX005 (ip), vehicle: Klucel (hydroxypropylcellulose) (HPC) 108 % of control | dose: 120.0 mg/kg/injection, schedule: Q01DX005 (ip), vehicle: Klucel (hydroxypropylcellulose) (HPC) 99 % of control | dose: 240.0 mg/kg/injection, schedule: Q01DX005 (ip), vehicle: Klucel (hydroxypropylcellulose) (HPC) 99 % of control

CCCOP(=O)(CCl)OCCC
inactive: dose: 100.0 mg/kg/injection, schedule: Q01DX009 (ip), vehicle: saline 90 % of control | dose: 200.0 mg/kg/injection, schedule: Q01DX009 (ip), vehicle: saline 95 % of control | dose: 400.0 mg/kg/injection, schedule: Q01DX009 (ip), vehicle: saline 109 % of control

O=S(CCCl)c1ccccc1 (stereo unspecified)
inactive: [1] 96 % of control | [2] 97 % of control | [3] 101 % of control | [4] 90 % of control

CCCCCCCCCCCCCC[N+]1(CC)CCCC1
inactive: dose: 6.25 mg/kg/injection, schedule: Q04DX002 (ip), vehicle: saline 119 % of control | dose: 12.5 mg/kg/injection, schedule: Q04DX002 (ip), vehicle: saline 86 % of control

CCOc1ccc(C(C)c2cc3c(cc2OCC(=O)O)OCO3)cc1 (stereo unspecified)
inactive: dose: 50.0 mg/kg/injection, schedule: Q01DX005 (ip), vehicle: saline with Tween-80 109 % of control | dose: 100.0 mg/kg/injection, schedule: Q01DX005 (ip), vehicle: saline with Tween-80 90 % of control

CCN(Cc1cccc(S(=O)(=O)O)c1)c1ccc(C(=C2C=CC(=[N+](CC)Cc3cccc(S(=O)(=O)O)c3)C=C2)c2ccc(O)cc2S(=O)(=O)O)cc1
inactive: dose: 60.0 mg/kg/injection, schedule: Q01DX005 (ip), vehicle: saline with Tween-80 107 % of control | dose: 120.0 mg/kg/injection, schedule: Q01DX005 (ip), vehicle: saline with Tween-80 98 % of control | dose: 240.0 mg/kg/injection, schedule: Q01DX005 (ip), vehicle: saline with Tween-80 107 % of control

CCC(=O)C(C)C(=O)CCC(=O)Nc1cc(Cl)ccc1Cl (stereo unspecified)
inactive: dose: 60.0 mg/kg/injection, schedule: Q01DX005 (ip), vehicle: saline 101 % of control | dose: 120.0 mg/kg/injection, schedule: Q01DX005 (ip), vehicle: saline 103 % of control | dose: 240.0 mg/kg/injection, schedule: Q01DX005 (ip), vehicle: saline 103 % of control
